According to patent US12655116B2, “Substituted isophthalic acid diamides” (Bayer Aktiengesellschaft, priority 2020, dated 2026):

Key:
ABUTH [1] = test: Post-emergence herbicidal action against ABUTH; type: in vivo, Abutilon theophrasti; details: visual assessment about 3 weeks after treatment vs untreated controls
Procedure, shortened: (§1)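 Sandy loam, greenhouse; treatment 2–3 weeks after sowing, one-leaf stage. Aqueous suspension or emulsion from WP/EC sprayed on foliage (600–800 l/ha, 0.2% wetting agent). Readout: visual % action, ~3 weeks.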

AMARE [2] = test: Pre-emergence herbicidal action against AMARE; type: in vivo, Amaranthus retroflexus
Procedure, shortened: (§2)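 Seeds sown in sandy loam, soil-covered; compound sprayed on soil surface pre-emergence. Application: WP/EC, 600–800 l/ha, 0.2% wetting agent. Readout: visual % damage at 3 weeks.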

VIOTR [3] = test: Pre-emergence herbicidal action against VIOTR; type: in vivo, Viola tricolor
Procedure, shortened: as §2

MATIN [4] = test: Post-emergence herbicidal action against MATIN; type: in vivo, Matricaria inodora
Procedure, shortened: as §1

DIGSA [5] = test: Post-emergence herbicidal action against DIGSA; type: in vivo, Digitaria sanguinalis
Procedure, shortened: as §1

VIOTR [6] = test: Post-emergence herbicidal action against VIOTR; type: in vivo, Viola tricolor
Procedure, shortened: as §1

SETVI [7] = test: Pre-emergence herbicidal action against SETVI; type: in vivo, Setaria viridis; details: dosage 80 g/ha
Procedure, shortened: as §2

ABUTH [8] = test: Pre-emergence herbicidal action against ABUTH; type: in vivo, Abutilon theophrasti
Procedure, shortened: as §2

STEME [9] = test: Pre-emergence herbicidal action against STEME; type: in vivo, Stellaria media
Procedure, shortened: as §2

SETVI [10] = test: Post-emergence herbicidal action against SETVI; type: in vivo, Setaria viridis
Procedure, shortened: as §1

ALOMY [11] = test: Post-emergence herbicidal action against ALOMY; type: in vivo, Alopecurus myosuroides; details: dosage 20 g/ha, visual assessment about 3 weeks after treatment vs untreated controls
Procedure, shortened: as §1

HORMU = test: Post-emergence herbicidal action against HORMU; type: in vivo, Hordeum murinum; details: dosage 20 g/ha
Procedure, shortened: as §1

ECHCG [12] = test: Pre-emergence herbicidal action against ECHCG; type: in vivo, Echinochloa crus-galli
Procedure, shortened: as §2

ECHCG [13] = test: Post-emergence herbicidal action against ECHCG; type: in vivo, Echinochloa crus-galli
Procedure, shortened: as §1

POLCO = test: Post-emergence herbicidal action against POLCO; type: in vivo, Polygonum convolvulus; details: dosage 20 g/ha
Procedure, shortened: as §1

STEME [14] = test: Post-emergence herbicidal action against STEME; type: in vivo, Stellaria media
Procedure, shortened: as §1

AVEFA = test: Post-emergence herbicidal action against AVEFA; type: in vivo, Avena fatua; details: 20 g/ha, visual assessment about 3 weeks after treatment, 100% = plants have died, 0% = like control plants
Procedure, shortened: as §1

VERPE [15] = test: Pre-emergence herbicidal action against VERPE; type: in vivo, Veronica persica; details: dosage 80 g/ha
Procedure, shortened: as §2

VERPE [16] = test: Post-emergence herbicidal action against VERPE; type: in vivo, Veronica persica; details: 20 g/ha
Procedure, shortened: as §1

AMARE [17] = test: Post-emergence herbicidal action against AMARE; type: in vivo, Amaranthus retroflexus; details: 20 g/ha, visual assessment about 3 weeks after treatment, 100% = plants have died, 0% = like control plants
Procedure, shortened: as §1

LOLRI = test: Post-emergence herbicidal action against LOLRI; type: in vivo, Lolium rigidum; details: dosage 20 g/ha
Procedure, shortened: as §1

PHBPU = test: Post-emergence herbicidal action against PHBPU; type: in vivo, Pharbitis purpurea; details: dosage 20 g/ha
Procedure, shortened: as §1

ALOMY [18] = test: Pre-emergence herbicidal action against ALOMY; type: in vivo, Alopecurus myosuroides; details: 80 g/ha, pre-emergence, scored visually after 3 weeks vs untreated controls (100% = plants have died, 0% = like control plants)
Procedure, shortened: as §2

DIGSA [19] = test: Pre-emergence herbicidal action against DIGSA; type: in vivo, Digitaria sanguinalis
Procedure, shortened: as §2

MATIN [20] = test: Pre-emergence herbicidal action against MATIN; type: in vivo, Matricaria inodora; details: dosage 80 g/ha
Procedure, shortened: as §2

[21] = 80 g/ha, scored visually after 3 weeks vs untreated controls (100% = plants have died, 0% = like control plants)

How did the “Post-emergence action against ABUTH in %” value (ABUTH [1]; dosage 5 g/ha) turn out when `CNC(=O)c1c(C(F)F)ccc(C(=O)Nc2nnco2)c1Cl` [Example 5-122] was run?
The value was 80%.

What about the “Post-emergence action against ABUTH in %” value (ABUTH [1]; dosage 20 g/ha) of the same compound?
The value was 90%.

What about the “Pre-emergence action against AMARE in %” value (AMARE [2]; 20 g/ha, scored visually after 3 weeks vs untreated controls, 100% = plants have died, 0% = like control plants) of the same compound?
The value was 80%.

What about the “Pre-emergence action against AMARE in %” value (AMARE [2]; [21]) of the same compound?
The value was 100%.

What about the “Pre-emergence action against VIOTR in %” value (VIOTR [3]; dosage 20 g/ha) of the same compound?
Its value is 80%.

And the “Pre-emergence action against VIOTR in %” value (VIOTR [3]; dosage 80 g/ha)?
The value was 100%.

And the “Post-emergence action against MATIN in %” value (MATIN [4]; dosage 5 g/ha)?
Its value is 80%.

What about the “Post-emergence action against MATIN in %” value (MATIN [4]; dosage 20 g/ha) of the same compound?
The value was 80%.

What about the “Post-emergence action against DIGSA in %” value (DIGSA [5]; 5 g/ha) of the same compound?
Its value is 90%.

What about the “Post-emergence action against DIGSA” value (DIGSA [5]; 20 g/ha) of the same compound?
Its value is 90%.

What about the “Post-emergence action against VIOTR in %” value (VIOTR [6]; 5 g/ha) of the same compound?
The value was 90%.

What about the “Post-emergence action against VIOTR in %” value (VIOTR [6]; 20 g/ha) of the same compound?
Its value is 90%.

What about the “Pre-emergence action against SETVI in %” value (SETVI [7]) of the same compound?
The value was 100%.

And the “Pre-emergence action against ABUTH (herbicidal activity)” value (ABUTH [8]; [21])?
Its value is 100%.

What about the “Pre-emergence action against ABUTH (herbicidal activity in percent)” value (ABUTH [8]; dosage 20 g/ha, scored visually after 3 weeks vs untreated controls, 100% = plants have died, 0% = like control plants) of the same compound?
Its value is 90%.

And the “Pre-emergence action against STEME in %” value (STEME [9]; dosage 20 g/ha)?
Its value is 90%.

What about the “Pre-emergence action against STEME in %” value (STEME [9]; dosage 80 g/ha) of the same compound?
Its value is 90%.

What about the “Post-emergence action against SETVI in %” value (SETVI [10]; dosage 5 g/ha) of the same compound?
Its value is 80%.

What about the “Post-emergence action against SETVI in %” value (SETVI [10]; dosage 20 g/ha) of the same compound?
Its value is 90%.

And the “Post-emergence action against ALOMY in %” value (ALOMY [11])?
Its value is 80%.

What about the “Post-emergence action against HORMU in %” value (HORMU) of the same compound?
Its value is 80%.

What about the “Pre-emergence action against ECHCG in %” value (ECHCG [12]; 20 g/ha) of the same compound?
The value was 80%.

And the “Pre-emergence action against ECHCG in %” value (ECHCG [12]; 80 g/ha)?
Its value is 100%.

And the “Post-emergence action against ECHCG in %” value (ECHCG [13]; dosage 5 g/ha)?
Its value is 90%.

What about the “Post-emergence action against ECHCG in %” value (ECHCG [13]; dosage 20 g/ha) of the same compound?
Its value is 90%.

What about the “Post-emergence action against POLCO in %” value (POLCO) of the same compound?
Its value is 80%.

What about the “Post-emergence action against STEME in %” value (STEME [14]; 20 g/ha) of the same compound?
Its value is 100%.

What about the “Post-emergence action against STEME in %” value (STEME [14]; dosage 5 g/ha) of the same compound?
The value was 90%.

And the “Post-emergence action at 20 g/ha against AVEFA in %” value (AVEFA)?
The value was 80%.

And the “Pre-emergence action against VERPE in %” value (VERPE [15])?
Its value is 100%.

What about the “Post-emergence action against VERPE in %” value (VERPE [16]) of the same compound?
The value was 80%.

And the “Post-emergence action at 20 g/ha against AMARE in %” value (AMARE [17])?
The value was 90%.

What about the “Post-emergence action against LOLRI in %” value (LOLRI) of the same compound?
The value was 80%.

What about the “Post-emergence action against PHBPU in %” value (PHBPU) of the same compound?
The value was 90%.

And the “Pre-emergence action against ALOMY (herbicidal activity)” value (ALOMY [18])?
The value was 80%.

And the “Pre-emergence action against DIGSA in %” value (DIGSA [19]; dosage 20 g/ha)?
The value was 100%.

What about the “Pre-emergence action against DIGSA in %” value (DIGSA [19]; dosage 80 g/ha) of the same compound?
The value was 100%.

And the “Pre-emergence action against MATIN in %” value (MATIN [20])?
Its value is 90%.
